Measured values published in US11248006B2, “Macrocyclic derivative of pyrazol[3,4-d]pyrimidin-3-one, pharmaceutical composition and use thereof” (SHANGHAI DE NOVO PHARMATECH CO., LTD., priority 2017, dated 2022).

Experiments:
Wee1 = Wee1 (Homo sapiens (Human), UniProt P30291); experiment: Wee1 enzyme catalysis assay (ATP-Glo Max kinase luminescence detection kit); format: biochemical; conditions: Wee1 enzymatic activity, 10 μM ATP, Poly (Lys, Tyr) substrate, 30° C. for 50 minutes
Description: In the present disclosure, Wee1 enzyme catalysis assay was carried out using the ATP-Glo Max kinase luminescence detection kit (Promega). Kinase activity was assessed by quantitative detection of the amount of ATP retained in the solution following the kinase reaction. The luminescent signal in the assay is proportional to the amount of ATP and inversely proportional to the kinase activity. The concentration of the compound in the assay ranged from 0.5 nM to 30 μM. The compound was dissolved in 10% DMSO, and 5 μL of the solution was added to 50 μL of the reaction, and the concentration of DMSO in the final reaction was 1%. The reaction was carried out at 30° C. for 50 minutes. 40 mM trishydroxymetyl aminomethane, pH 7.4, 10 mM MgCl2, 0.1 mg/ml BSA, 2 mM DTT, 0.1 mg/ml Poly (Lys, Tyr) substrate, 10 μM ATP and Wee1 were contained in the reaction mixture. After the enzymatic reaction, 50 μL of ATP-Glo Max kinase luminescence detection assay solution (Promega) was added and incubated for 15 minutes at room temperature. The luminescent signal was measured using a microplate reader. In some assays, a known Wee1 inhibitor was added as a positive control. Luminance data was analyzed using Graphpad software. The difference between the luminescence intensity in the absence of Wee1 and the luminescence intensity in the presence of Wee1 was defined as 100% activity (Lut−Luc). Using the luminescence intensity signal (Lu) in the presence of the compound, the % activity was calculated as follows: % Activity={(Lut−Lu)/(Lut−Luc)}×100%, wherein, Lu=luminous intensity of the compound Non-linear regression analysis was employed to plot the dose-effect curve of % activity value and the corresponding concentrations for the series of compounds. The equation is Y=B+(TB)/1+10((Log EC50−X)×Hill Slope), Y=% activity, B=minimum activity percentage, T=maximum activity percentage, X=logarithm of compound and Hill slope=slope factor or Hill coefficient. The IC50 value was determined by the concentration of a compound that is required to obtain 50% of the maximum effect.

[1] = tested on: Human osteosarcoma cell line MG63; experiment: Cell proliferation assay (CCK-8 cell viability); format: cell-based; conditions: CCK-8, 72 hours incubation
Description: In the present disclosure, cell assays were used to assess the biological activity of the compound. Human osteosarcoma cell line MG63 (ATCC CRL-1427) was cultured in a 96-well plate of Dulbecco's Modified Eagle's medium, supplemented with 10% fetal bovine serum and 1% (v/v) L-glutamine, and the cultivation environment was 37° C. and 5% CO2. Compound concentrations ranged from 4.5 nM to 30 μM. The Wee1 inhibitor stock solution was dissolved in DMSO, added to the medium with an indicated concentration and incubated for 72 hours. Negative control cells were only treated with vehicle. In some assays, a known Wee1 inhibitor was added as a positive control. Cell viability was measured using a Cell Counting Kit-8 (CCK-8, Sigma-Aldrich) under the instruction of the product specification. The data was analyzed using Graphpad software to obtain a fitted curve of IC50 values against the compounds.

Sequence of Wee1 (P30291 whole entry): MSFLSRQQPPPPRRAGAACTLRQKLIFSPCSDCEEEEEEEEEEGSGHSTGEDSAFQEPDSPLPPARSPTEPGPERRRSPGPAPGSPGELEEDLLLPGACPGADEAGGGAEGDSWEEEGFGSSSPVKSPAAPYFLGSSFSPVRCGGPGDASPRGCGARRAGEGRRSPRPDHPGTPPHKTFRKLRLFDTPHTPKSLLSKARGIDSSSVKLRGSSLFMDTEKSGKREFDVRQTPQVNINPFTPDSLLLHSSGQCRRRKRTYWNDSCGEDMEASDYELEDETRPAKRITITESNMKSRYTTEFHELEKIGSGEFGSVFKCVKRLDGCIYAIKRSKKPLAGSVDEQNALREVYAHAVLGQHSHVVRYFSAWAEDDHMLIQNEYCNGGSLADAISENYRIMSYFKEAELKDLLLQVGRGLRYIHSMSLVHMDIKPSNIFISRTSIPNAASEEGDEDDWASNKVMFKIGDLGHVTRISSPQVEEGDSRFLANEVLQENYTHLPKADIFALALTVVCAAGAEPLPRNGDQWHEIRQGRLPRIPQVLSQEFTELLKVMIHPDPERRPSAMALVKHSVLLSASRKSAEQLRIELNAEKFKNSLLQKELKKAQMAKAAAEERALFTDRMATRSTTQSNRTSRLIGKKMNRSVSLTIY

SMILES | IC50 (Wee1) [nM] | IC50 [1] [nM] | IC50 ([1]; Homo sapiens, MG-63, 72 h) [nM]
CN1Cc2cc(Nc3ncc4c(=O)n5n(c4n3)-c3cccc(n3)OCCCC/C=C\C5)ccc2C2(CC2)C1 [Compound 1-2-2] | 10.3 | – | –
CN1CCCC(n2ccc3cc(Nc4ncc5c(=O)n6n(c5n4)-c4ccc5c(n4)N(CCC/C=C\C6)C(=O)CO5)ccc32)C1 (stereo not shown) [Compound 3-7-2] | 18.2 | – | –
CN1Cc2cc(Nc3ncc4c(=O)n5n(c4n3)-c3ccc4c(n3)N(CCC/C=C\C5)CCO4)ccc2C2(CC2)C1 [Compound 8-2-1] | 11.6 | – | –
CC(=O)N1CCCCC=CCn2c(=O)c3cnc(Nc4ccc(N5CCN(C)CC5)cc4)nc3n2-c2cccc1n2 [Compound 2-1-1] | 75.2 | – | –
CN1Cc2cc(Nc3ncc4c(=O)n5n(c4n3)-c3cccc(n3)N(C)CCC/C=C\C5)ccc2C(C)(C)C1 [Compound 9-1-1] | 11.8 | – | –
COc1cc(Nc2ncc3c(=O)n4n(c3n2)-c2ccc3c(n2)N(CCC#CC4)C(=O)CO3)ccc1N1CCN(C)CC1 [Compound 10-1-5] | 11.7 | – | –
CC(=O)N1CCCCC=CCn2c(=O)c3cnc(Nc4ccc(N5CCN(C)CC5)cc4)nc3n2-c2cccc1n2 [Compound 2-1-2] | 62.5 | – | –
CN1CCn2c(cc3cc(Nc4ncc5c(=O)n6n(c5n4)-c4ccc5c(n4)N(CCC/C=C\C6)C(=O)CO5)ccc32)C1 [Compound 3-7-8] | 12.3 | – | 654
C=CCn1c(=O)c2cnc(SC)nc2n1-c1ccc2c(n1)N(CCCC#CCOC1CCCCO1)C(=O)CO2 (stereo not shown) [Compound 10-1-1] | 9.9 | 490 | –
CC(=O)N1CCC/C=C\Cn2c(=O)c3cnc(Nc4ccc5c(c4)CN(C)CC5(C)C)nc3n2-c2cccc1n2 [Compound 2-3-2] | 16.4 | – | –
CN1Cc2cc(Nc3ncc4c(=O)n5n(c4n3)-c3ccc4c(n3)N(CCCC/C=C/C5)C(=O)CO4)ccc2C2(CC2)C1 [Compound 3-2-1] | 21 | – | –
COc1cc(Nc2ncc3c(=O)n4n(c3n2)-c2ccc3c(n2)N(CCC/C=C\C4)CCO3)ccc1N1CCN(C)CC1 [Compound 8-2-2] | 13 | – | –
CC(=O)N1CC/C=C\Cn2c(=O)c3cnc(Nc4ccc5c(c4)CN(C)CC5(C)C)nc3n2-c2cccc1n2 [Compound 2-3-1] | 10.7 | – | –
CN1Cc2ccc(Nc3ncc4c(=O)n5n(c4n3)-c3cccc(n3)OCCOC/C=C/C5)cc2C(C)(C)C1 [Compound 1-3-2] | 23.8 | – | –
CN1CCN(C)c2ccc(Nc3ncc4c(=O)n5n(c4n3)-c3ccc4c(n3)N(CCC/C=C\C5)C(=O)CO4)cc2C1 [Compound 3-4-1] | 9.4 | – | –
CN1CCN(c2ccc(Nc3ncc4c(=O)n5n(c4n3)-c3cccc(n3)OCCC/C=C\C5)cc2)CC1 [Compound 1-1-2] | 32 | – | –

SMILES | IC50 (Wee1) [nM] | IC50 [1] [nM] | IC50 ([1]; Homo sapiens, MG-63, 72 h) [nM]
O=C1COc2ccc3nc2N1CCC/C=C\Cn1c(=O)c2cnc(Nc4ccc5c(c4)CN(CC(F)F)CC54CC4)nc2n1-3 [Compound 3-2-8] | 9 | – | –
CN1Cc2cc(Nc3ncc4c(=O)n5n(c4n3)-c3ccc4c(n3)N(CCO4)C(=O)OC/C=C\C5)ccc2C2(CC2)C1 [Compound 8-3-1] | 16.3 | – | –
CN(C)CCn1ccc2cc(Nc3ncc4c(=O)n5n(c4n3)-c3cccc(n3)C(C)(O)CCC/C=C\C5)ccc21 (stereo not shown) [Compound 6-1-1] | 155 | – | –
CN1C[C@@H]2C[C@H]1CN2c1ccc(Nc2ncc3c(=O)n4n(c3n2)-c2ccc3c(n2)N(CCC/C=C\C4)C(=O)CO3)cc1 [Compound 3-3-4] | 8.6 | – | –
CN1CCOc2ccc(Nc3ncc4c(=O)n5n(c4n3)-c3ccc4c(n3)N(CCC/C=C\C5)C(=O)CO4)cc2C1 [Compound 3-4-2] | 8.2 | – | –
CN1Cc2cc(Nc3ncc4c(=O)n5n(c4n3)-c3ccc4c(n3)N(CCC/C=C\C5)C(=O)C(C)(C)O4)ccc2C2(CC2)C1 [Compound 7-1-1] | 12.9 | – | –
O=C1COc2ccc3nc2N1CCC/C=C\Cn1c(=O)c2cnc(Nc4ccc(N5CCN6CCCC6C5)cc4)nc2n1-3 (stereo not shown) [Compound 3-3-10] | 8.8 | – | –
COc1cc(Nc2ncc3c(=O)n4n(c3n2)-c2ccc3c(n2)N(CCCC#CC4)C(=O)CO3)ccc1N1CCN(C)CC1 [Compound 10-1-3] | 8.4 | – | –
CN1CCN(c2cc(Nc3ncc4c(=O)n5n(c4n3)-c3ccc4c(n3)N(CCC/C=C\C5)C(=O)CO4)cc3ccoc23)CC1 [Compound 3-7-17] | – | – | 270
CN1CCN(c2ccc(Nc3ncc4c(=O)n5n(c4n3)-c3cccc(n3)OCCOC/C=C/C5)cc2)CC1 [Compound 1-1-4] | 30.2 | – | –
CN1CCN(Cc2ccc(Nc3ncc4c(=O)n5n(c4n3)-c3ccc4c(n3)N(CCC/C=C\C5)C(=O)CO4)cc2)CC1 [Compound 3-3-6] | 24.8 | – | –
CN1CCN(c2ccc3cc(Nc4ncc5c(=O)n6n(c5n4)-c4ccc5c(n4)N(CCC/C=C\C6)C(=O)CO5)ccc3c2)CC1 [Compound 3-8-1] | – | – | 160
COC(=O)N1CCC(n2ccc3cc(Nc4ncc5c(=O)n6n(c5n4)-c4ccc5c(n4)N(CCC/C=C\C6)C(=O)CO5)ccc32)CC1 [Compound 3-7-4] | 36.6 | – | –
CN1Cc2cc(Nc3ncc4c(=O)n5n(c4n3)-c3ccc4c(n3)N(CCC/C=C\C5)C(=O)CO4)ccc2C1=O [Compound 3-6-1] | 16.2 | – | –
CN1Cc2cc(Nc3ncc4c(=O)n5n(c4n3)-c3ccc4c(n3)N(CCO4)C(=O)CC/C=C\C5)ccc2C(C)(C)C1 [Compound 8-1-1] | 20.1 | – | –
C=CCn1c(=O)c2cnc(Nc3ccc(N4CCN(C)CC4)cc3)nc2n1-c1cccc(C(C)(C)O)n1 [AZD1775, 2-allyl-1-(6-(2-hydroxypropan-2-yl)pyridin-2-yl)-6-((4-(4-methylpiperazin-1-yl)phenyl)amino)-1H-pyrazolo[3,4-d]pyrimidin-3 (2H)-one, reference compound] | – | – | 785

Further molecules by falling IC50 (Wee1), results first:

IC50 (Wee1) [nM] | IC50 [1] [nM] | IC50 ([1]; Homo sapiens, MG-63, 72 h) [nM] | SMILES
8.1 | – | – | CN1Cc2cc(Nc3ncc4c(=O)n5n(c4n3)-c3cccc(n3)OCC/C=C\C5)ccc2C(C)(C)C1 [Compound 1-3-1]
7.9 | 211 | – | CC(C)N1CCC(n2ccc3cc(Nc4ncc5c(=O)n6n(c5n4)-c4ccc5c(n4)N(CCC/C=C\C6)C(=O)CO5)ccc32)CC1 [Compound 3-7-15]
7.7 | – | – | CCN1Cc2cc(Nc3ncc4c(=O)n5n(c4n3)-c3ccc4c(n3)N(CCC/C=C\C5)C(=O)CO4)ccc2C2(CC2)C1 [Compound 3-2-5]
7.6 | – | – | CN1CCN(c2ccc(Nc3ncc4c(=O)n5n(c4n3)-c3ccc4c(n3)N(CCC/C=C\C5)C(=O)CO4)cc2F)CC1 [Compound 3-3-8]
7.6 | – | – | CN(C)CCn1ccc2cc(Nc3ncc4c(=O)n5n(c4n3)-c3ccc4c(n3)N(CCC/C=C\C5)C(=O)CO4)ccc21 [Compound 3-7-1]
7.5 | – | – | COc1cc(Nc2ncc3c(=O)n4n(c3n2)-c2ccc3c(n2)N(CCC/C=C\C4)C(=O)CC3)ccc1N1CCN(C)CC1 [Compound 5-1-1]
7.3 | – | – | CN1CCN(c2ccc(Nc3ncc4c(=O)n5n(c4n3)-c3cccc(n3)OCC/C=C\C5)cc2)CC1 [Compound 1-1-3]
6.8 | – | – | COc1cc(Nc2ncc3c(=O)n4n(c3n2)-c2cccc(n2)OCC/C=C\C4)ccc1N1CCN(C)CC1 [Compound 1-1-6]
6.5 | – | – | COc1cc(Nc2ncc3c(=O)n4n(c3n2)-c2ccc3c(n2)N(CCC/C=C/C4)C(=O)CO3)ccc1N1CCN(C)CC1 [Compound 3-3-11]
6.5 | – | – | CC(C)N1CCC(n2ncc3cc(Nc4ncc5c(=O)n6n(c5n4)-c4ccc5c(n4)N(CCC/C=C\C6)C(=O)CO5)ccc32)CC1 [Compound 3-7-14]
6.3 | – | – | Cc1cc(Nc2ncc3c(=O)n4n(c3n2)-c2ccc3c(n2)N(CCCC=CC4)C(=O)CO3)ccc1N1CCN(C)CC1 [Compound 3-3-9]
6.1 | 327 | – | CC(C)(C)OC(=O)N1Cc2cc(Nc3ncc4c(=O)n5n(c4n3)-c3ccc4c(n3)N(CCC/C=C\C5)C(=O)CO4)ccc2C(C)(C)C1 [Compound 3-5-2]
6.1 | – | – | CN1CCN(c2ccc(Nc3ncc4c(=O)n5n(c4n3)-c3cccc(n3)OCC/C=C\C5)cc2CO)CC1 [Compound 1-1-5]
5.7 | – | – | CC1CN(c2ccc(Nc3ncc4c(=O)n5n(c4n3)-c3ccc4c(n3)N(CCC/C=C\C5)C(=O)CO4)cc2)CCN1C (stereo not shown) [Compound 3-3-3]
5.1 | – | – | CN1Cc2cc(Nc3ncc4c(=O)n5n(c4n3)-c3ccc4c(c3)N(CCC/C=C\C5)C(=O)CO4)ccc2C2(CC2)C1 [Compound 4-1-1]
4.8 | – | – | COc1cc(Nc2ncc3c(=O)n4n(c3n2)-c2ccc3c(n2)N(CCC/C=C\C4)C(=O)CO3)ccc1N1CCN(C)C(C)C1 (stereo not shown) [Compound 3-3-5]
